Data as given in publication PMC4278898 (PLoS ONE, 2014).
Several values for one entry are separate records, joined by “and”; a condition that tells them apart may be missing. Equal entries are not always repeated. Entries after “also recorded” stand apart in the source; their conditions may differ. Where two headings read alike, the source gives them in different places.

Legend:
HIV-1 MN [1] = assay: Anti-HIV activity in PBMC, HIV-1 MN (p24 ELISA); type: cell-based; details: for anti-HIV activity, PBMC cells, HIV-1 MN: concentration not given
HIV-1 MN [2] = assay: Anti-HIV activity in H9 cells, HIV-1 MN (p24 ELISA); type: cell-based; details: for inhibition of infection / anti-HIV activity, H9 cells, HIV-1 MN: concentration not given
Method: (§1) HIV-1 infection of H9 cells was performed as described by Gurgo et al. as follows: H9 cells were seeded at 1×10^5 cell/mL into a 24 well plate. […] After 48 hours of incubation, the supernatant was collected and frozen at −80°C. ELISA was performed to detect p24, and the cytotoxicity assay was done using the resazurin fluorometric method, as described previously.
(§2) The HIV-1 p24 Antigen ELISA 2.0 Kit (ZeptoMetrix Corporation, Bufalo, NY) was used to monitor and determine the titer of HIV-1-based lentiviral samples, as described by Gonçalves et al.. For each sample (n = 9), a 225 µL volume was treated with 25 µL of lysing buffer. An ELISA array plate was washed three times with 300 µL/well of wash buffer in a microplate washer (MultiWash III, TriContinent, Grass Valley, CA), and 200 µL/well of each treated samples was transferred to the plate. The plate was incubated at 37°C for 3 hours, then washed six times, incubated for 1 hour with 100 µL/well of HIV-1 p24 detector antibody, washed six more times, and incubated 30 min at room temperature with 100 µL/well of substrate. The reaction was stopped by addition of stop solution (100 µL/well). The absorbance was determined using a microplate reader (SpectraMax M5, Molecular Devices, Sunnyvale, CA) at 450 nm, and the samples were calibrated against the HIV-1 p24 standard curve, generated from a series of standards loaded on the same plate.

H9 cells = assay: Cytotoxicity assay (resazurin fluorometric method), H9 cells; type: cell-based, human
[3] = Cytotoxicity tests on TZM-bl, HeLa, PBMC and H9 cells (summary statements); type: cell-based, human; details: human, TZM-bl, HeLa, PBMC, H9; for viability at 24 h: at concentrations between 20 µM–60 µM, read-out: cell viability
Method: (§3) The in vitro cytotoxic effect of each of the flavonoids was determined by a resazurin fluorometric method (Cell Titer Blue Viability Assay, Promega Corp, Madison, WI), as described by O'Brien et al. [27]. TZM-bl and HeLa adherent cells were each separately seeded (1×10^5 cell/mL) into a 96 well plate (Greiner Bio-One North America, Inc Monroe, NC, USA). After 24 hours, their morphology was observed under an inverted microscope. The experimental natural compounds were then added to the cultured cells (n = 9) plates, and incubated for 24 hours. The cells were washed with pre-warmed PBS (Lonza Walkersville, Inc. Walkersville, MD) and the medium was replaced with medium pre-warmed to 37°C. Resazurin was added, and the cells were incubated for 3.5 hours. […] The cytotoxic effect of the three flavonoids on H9 and PBMC cells was determined using the same protocol.

HIV-1 89.6 [4] = assay: Anti-HIV activity in H9 cells, HIV-1 89.6 (p24 ELISA); type: cell-based; details: for inhibition of infection / anti-HIV activity, H9 cells, HIV-1 89.6: p24 ELISA, concentration not given
Method: as §1, §2

HIV-1 89.6 [5] = assay: Anti-HIV activity in PBMC, HIV-1 89.6 (p24 ELISA); type: cell-based; details: for IC50: Human immunodeficiency virus 1, HIV-1 89.6, p24 ELISA; for anti-HIV activity, PBMC cells, HIV-1 89.6: p24 ELISA, concentration not given
Method: The viability of the cells was assessed by the resazurin fluometric method as describe previously. After incubation, the supernatant from each well was collected and stored at -80°C for performance of p24 ELISA.
as §2

PBMC cells = assay: Cytotoxicity assay (resazurin fluorometric method), PBMC cells; type: cell-based, human
TZM-bl cells [6] = assay: Cytotoxicity assay (resazurin fluorometric method), TZM-bl cells; type: cell-based, human
HIV-1 BaL [7] = assay: Anti-HIV activity in infected TZM-bl cells (luciferase); type: cell-based; details: for anti-HIV activity compared with the vehicle control (HIV-1 BaL, TZM-bl): concentration not stated (range 0.01–100 µM)
HeLa cells = assay: Cytotoxicity assay (resazurin fluorometric method), HeLa cells; type: cell-based, human
[8] = tested on: TZM-bl, HeLa, PBMC, and H9 cells; assay: Cytotoxicity tests on TZM-bl, HeLa, PBMC and H9 cells (summary statements); type: cell-based, human; details: positive control AZT 60 µM
Method: as §3

HeLa cell layer = assay: Trans Epithelial Electric Resistance (TEER) of HeLa cell layer in dual-chamber model; details: dual-chamber transwell insert
Method: (§4) Transwell assay inserts with 8 µM diameter pores and 0.3 cm^2 of culture surface (Greiner Bio-One, Monroe, NC,) were positioned in the wells of a 24-well plate. Then 1×10^4 HeLa cells were seeded into each transwell insert/apical chamber (using DMEM with 10% FBS). TZM-bl cells (1×10^5) were seeded into the basal chambers below the inserts, and the plates were incubated at 37°C in humid air containing 5% CO2. To assess confluence, the Trans Epithelial Electric Resistance (TEER) (described by Arien et al. [33]) of each HeLa cell layer was measured with a Millicell-ERS Volt-Ohm Meter (Millipore, Bedford, MA) before and after flavonoids treatments. Cell layer confluence in the transwell inserts was measured daily, until the optimal TEER (>150 Ohm/cm^2) was reached on day 4. On day 4, the media in the basal chamber and the insert was replaced with new pre-warmed media. […] The plate was incubated at 37°C, in humid air containing 5% CO2.

TZM-bl cells [9] = assay: Cell viability in the dual-chamber model (resazurin); details: resazurin method
Method: The in vitro cytotoxic effect of each of the flavonoids was determined by a resazurin fluorometric method (Cell Titer Blue Viability Assay, Promega Corp, Madison, WI), as described by O'Brien et al. [27]. TZM-bl and HeLa adherent cells were each separately seeded (1×10^5 cell/mL) into a 96 well plate (Greiner Bio-One North America, Inc Monroe, NC, USA). After 24 hours, their morphology was observed under an inverted microscope. The experimental natural compounds were then added to the cultured cells (n = 9) plates, and incubated for 24 hours. The cells were washed with pre-warmed PBS (Lonza Walkersville, Inc. Walkersville, MD) and the medium was replaced with medium pre-warmed to 37°C. Resazurin was added, and the cells were incubated for 3.5 hours.
Transwell assay inserts with 8 µM diameter pores and 0.3 cm^2 of culture surface (Greiner Bio-One, Monroe, NC,) were positioned in the wells of a 24-well plate. Then 1×10^4 HeLa cells were seeded into each transwell insert/apical chamber (using DMEM with 10% FBS). […] To assess confluence, the Trans Epithelial Electric Resistance (TEER) (described by Arien et al. [33]) of each HeLa cell layer was measured with a Millicell-ERS Volt-Ohm Meter (Millipore, Bedford, MA) before and after flavonoids treatments. Cell layer confluence in the transwell inserts was measured daily, until the optimal TEER (>150 Ohm/cm^2) was reached on day 4. […]

HIV-1 BaL [10] = assay: Microbicide activity in the dual-chamber model (HeLa apical, TZM-bl basal; luciferase); details: Human immunodeficiency virus 1, BAL
Method: as §4
The experiments were performed in triplicate and repeated three different times.

[11] = Human immunodeficiency virus 1, PBMC cells, HIV-1 MN, p24 ELISA, read-out: IC50
[12] = Human immunodeficiency virus 1, H9 cells, HIV-1 MN, p24 ELISA, read-out: IC50
[13] = Human immunodeficiency virus 1, H9 cells, HIV-1 89.6, p24 ELISA, read-out: IC50
[14] = TZM-bl cells, 24 hours treatment, concentration that kills 50% of the cells
[15] = Human immunodeficiency virus 1, BAL, TZM-bl
[16] = Human immunodeficiency virus 1, H9

In the case of `O=c1c(O)c(-c2ccc(O)c(O)c2)oc2cc(O)cc(O)c12` [Quercetin], the IC50 (HIV-1 MN [1]; [11]) is reported as 31.7 µM, the “anti-HIV activity, PBMC cells, HIV-1 MN” value (HIV-1 MN [1]; p24 ELISA) is reported as 45% and the IC50 (HIV-1 MN [2]; [12]) is reported as 38.8 µM. The “inhibition of infection / anti-HIV activity, H9 cells, HIV-1 MN” value (HIV-1 MN [2]; p24 ELISA) was ≥ 64%, the LD50 (H9 cells; H9 cells) was 905.76 µM and the viability at 24 h [3] was ≥ 85%. The IC50 (HIV-1 89.6 [4]; [13]) was 29.8 µM, the “inhibition of infection / anti-HIV activity, H9 cells, HIV-1 89.6” value (HIV-1 89.6 [4]) was ≥ 64% and the IC50 (HIV-1 89.6 [5]; PBMC cells) was 39.3 µM. For the same compound, the “anti-HIV activity, PBMC cells, HIV-1 89.6” value (HIV-1 89.6 [5]) was 59%, the LD50 (PBMC cells; PBMC cells) was 813.57 µM and the LD50 (TZM-bl cells [6]; [14]) was 119.23 µM. For the same compound, the IC50 (HIV-1 BaL [7]; [15]) was 89 µM, the “anti-HIV activity compared with the vehicle control (HIV-1 BaL, TZM-bl)” value (HIV-1 BaL [7]) was 39% and the LD50 (HeLa cells; HeLa cells, 24 hours treatment) was 78.20 µM.

In the case of `Cc1cn([C@H]2C[C@H](N=[N+]=[N-])[C@@H](CO)O2)c(=O)[nH]c1=O` [AZT, Zidovudine, reference compound], the “effect on cell growth” value [8] is reported as “did not affect the cell growth” and the inhibition at 60 µM (HIV-1 BaL [7]; Human immunodeficiency virus 1, BAL, TZM-bl, read-out: inhibition of HIV infection by positive control (HIV-1 BaL, TZM-bl)) is reported as ≥ 90%.

In the case of `O=c1c(O)c(-c2cc(O)c(O)c(O)c2)oc2cc(O)cc(O)c12` [Myricetin], the “TEER of HeLa cell layer before and after flavonoid treatment” value (HeLa cell layer) is reported as 208 Ohm/cm^2, the IC50 (HIV-1 MN [1]; Human immunodeficiency virus 1, PBMC) is reported as 4.49 µM and the inhibition at 100 µM (HIV-1 MN [1]; Human immunodeficiency virus 1, PBMC, read-out: inhibition of HIV-1 MN infection in PBMC cells) is reported as 86%. For the same compound, the “cell viability in dual-chamber model versus negative control (only cells)” value (TZM-bl cells [9]) was “no statistically significant difference; also recorded: did not show a statistically significant difference on cell viability”, the “anti-HIV activity greater compared to Pinocembrin, HIV-1 MN, H9” value (HIV-1 MN [2]; H9 cells) was ~2.9 x and the “anti-HIV activity greater than that of Quercetin, HIV-1 MN, H9” value (HIV-1 MN [2]; H9 cells) was “approximately 1.7 x”. It also gave an IC50 (HIV-1 MN [2]; [16]) of 22.9 µM, an LD50 (H9 cells; H9 cells) of 1059.09 µM and an IC50 (HIV-1 BaL [10]; read-out: IC50, HIV-1 BaL infection in dual-chamber system) of 19.5 µM. The inhibition at 100 µM (HIV-1 BaL [10]; read-out: inhibition of HIV-1 BaL infection in dual-chamber system) was > 88%, the viability at 24 h, 100 µM ([3]; PBMC and H9 cells, at 100 µM concentration, read-out: cell viability compared with the negative control (only cells)) was ≥ 85% and the “anti-HIV activity greater than for Pinocembrin, HIV-1 89.6, H9” value (HIV-1 89.6 [4]; H9 cells) was 23.9 x. The “anti-HIV activity greater than for Quercetin, HIV-1 89.6, H9” value (HIV-1 89.6 [4]; H9 cells) was 16.9 x, the IC50 (HIV-1 89.6 [4]; [16]) was 1.76 µM and the inhibition at 100 µM (HIV-1 89.6 [5]; Human immunodeficiency virus 1, PBMC, read-out: inhibition of HIV-1 89.6 infection in PBMC cells) was 85%. The “x higher than Pinocembrin, HIV-1 89.6, PBMC” value (HIV-1 89.6 [5]; PBMC cells) was 16.4 x, the “x higher than Quercetin, HIV-1 89.6, PBMC” value (HIV-1 89.6 [5]; PBMC cells) was 12.3 x and the “anti-HIV activity, PBMC cells, HIV-1 89.6” value (HIV-1 89.6 [5]) was “more than 80%”. For the same compound, the LD50 (PBMC cells; PBMC cells) was 1159.26 µM, the LD50 (TZM-bl cells [6]; [14]) was 1214.92 µM and 1214.72 µM and the IC50 (HIV-1 BaL [7]; [15]) was 20.4 µM. For the same compound, the inhibition at 100 µM (HIV-1 BaL [7]; Human immunodeficiency virus 1, BAL, TZM-bl, read-out: inhibition of HIV-1 BaL infection in TZM-bl cells) was > 87% and the LD50 (HeLa cells; HeLa cells, 24 hours treatment) was 804.94 µM.

In the case of `O=C1C[C@@H](c2ccccc2)Oc2cc(O)cc(O)c21` [Pinocembrin], the IC50 (HIV-1 MN [1]; [11]) is reported as 57.7 µM, the “anti-HIV activity, PBMC cells, HIV-1 MN” value (HIV-1 MN [1]; p24 ELISA) is reported as 67% and the IC50 (HIV-1 MN [2]; [12]) is reported as 67.2 µM. The “inhibition of infection / anti-HIV activity, H9 cells, HIV-1 MN” value (HIV-1 MN [2]; p24 ELISA) was ≥ 60%, the LD50 (H9 cells; human, 24 h) was 805.76 µM and the viability at 24 h ([3]; PBMC and H9 cells) was ≥ 85%. For the same compound, the IC50 (HIV-1 89.6 [4]; [13]) was 42.2 µM, the “inhibition of infection / anti-HIV activity, H9 cells, HIV-1 89.6” value (HIV-1 89.6 [4]) was ≥ 60% and the IC50 (HIV-1 89.6 [5]; PBMC cells) was 53.2 µM. The “anti-HIV activity, PBMC cells, HIV-1 89.6” value (HIV-1 89.6 [5]) was 51%, the LD50 (PBMC cells; human, 24 h) was 788.23 µM and the LD50 (TZM-bl cells [6]; human, 24 h) was 67.94 µM. For the same compound, the IC50 (HIV-1 BaL [7]; Human immunodeficiency virus 1, TZM-bl cells, HIV-1 BaL, MOI = 1, read-out: IC50) was 347 µM, the “anti-HIV activity compared with the vehicle control (HIV-1 BaL, TZM-bl)” value (HIV-1 BaL [7]) was 28% and the LD50 (HeLa cells; human, 24 h) was 99.52 µM.
